{"source": "patent US8192962B2", "about": "“Processes for detecting toxic substances” (Daikin Industries, Ltd., priority 2001, dated 2012)", "test_system": "Genes belonging to other category", "assay": "DNA chip mRNA expression in yeast, genes belonging to other category (Table 9)", "format": "cell-based, Saccharomyces cerevisiae S288C", "outline": "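S. cerevisiae S288C grown at 25° C in YPD were exposed in log phase for two hours to one toxic chemical at a growth-inhibiting, non-lethal concentration; untreated cells served as control. Poly(A) mRNA was reverse-transcribed with Cy3/Cy5-dUTP and hybridized to a whole-genome yeast DNA chip at 65° C for over 12 hours; values are fluorescence ratios versus untreated.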"}
{"substance": "manganese ethylenebis(dithiocarbamate) [(8)]", "values": [{"measurement": "The level of expressed mRNA in the presence of chemical substance/The level of expressed mRNA in the absence of chemical substance", "setting": "yeast gene YAR010C", "result": 1.3}, {"measurement": "The level of expressed mRNA in the presence of chemical substance/The level of expressed mRNA in the absence of chemical substance", "setting": "yeast gene YBL005W-A", "result": 1.0}, {"measurement": "The level of expressed mRNA in the presence of chemical substance/The level of expressed mRNA in the absence of chemical substance", "setting": "yeast gene YBL041W", "result": 1.7}, {"measurement": "The level of expressed mRNA in the presence of chemical substance/The level of expressed mRNA in the absence of chemical substance", "setting": "yeast gene YBL043W", "result": 2.1}, {"measurement": "The level of expressed mRNA in the presence of chemical substance/The level of expressed mRNA in the absence of chemical substance", "setting": "yeast gene YBL078C", "result": 1.6}, {"measurement": "The level of expressed mRNA in the presence of chemical substance/The level of expressed mRNA in the absence of chemical substance", "setting": "yeast gene YBR214W", "result": 0.7}, {"measurement": "The level of expressed mRNA in the presence of chemical substance/The level of expressed mRNA in the absence of chemical substance", "setting": "yeast gene YCL020W", "result": 1.7}, {"measurement": "The level of expressed mRNA in the presence of chemical substance/The level of expressed mRNA in the absence of chemical substance", "setting": "yeast gene YCL027W", "result": 0.6}, {"measurement": "The level of expressed mRNA in the presence of chemical substance/The level of expressed mRNA in the absence of chemical substance", "setting": "yeast gene YCR004C", "result": 1.2}, {"measurement": "The level of expressed mRNA in the presence of chemical substance/The level of expressed mRNA in the absence of chemical substance", "setting": "yeast gene YCR071C", "result": 0.9}, {"measurement": "The level of expressed mRNA in the presence of chemical substance/The level of expressed mRNA in the absence of chemical substance", "setting": "yeast gene YCR088W", "result": 0.5}, {"measurement": "The level of expressed mRNA in the presence of chemical substance/The level of expressed mRNA in the absence of chemical substance", "setting": "yeast gene YDL008W", "result": 1.2}, {"measurement": "The level of expressed mRNA in the presence of chemical substance/The level of expressed mRNA in the absence of chemical substance", "setting": "yeast gene YDL238C", "result": 5.8}, {"measurement": "The level of expressed mRNA in the presence of chemical substance/The level of expressed mRNA in the absence of chemical substance", "setting": "yeast gene YDR055W", "result": 1.6}, {"measurement": "The level of expressed mRNA in the presence of chemical substance/The level of expressed mRNA in the absence of chemical substance", "setting": "yeast gene YDR084C", "result": 0.7}, {"measurement": "The level of expressed mRNA in the presence of chemical substance/The level of expressed mRNA in the absence of chemical substance", "setting": "yeast gene YDR085C", "result": 2.0}, {"measurement": "The level of expressed mRNA in the presence of chemical substance/The level of expressed mRNA in the absence of chemical substance", "setting": "yeast gene YDR104C", "result": 1.3}, {"measurement": "The level of expressed mRNA in the presence of chemical substance/The level of expressed mRNA in the absence of chemical substance", "setting": "yeast gene YDR115W", "result": 1.3}, {"measurement": "The level of expressed mRNA in the presence of chemical substance/The level of expressed mRNA in the absence of chemical substance", "setting": "yeast gene YDR259C", "result": 1.4}, {"measurement": "The level of expressed mRNA in the presence of chemical substance/The level of expressed mRNA in the absence of chemical substance", "setting": "yeast gene YDR315C", "result": 1.4}, {"measurement": "The level of expressed mRNA in the presence of chemical substance/The level of expressed mRNA in the absence of chemical substance", "setting": "yeast gene YDR358W", "result": 1.2}, {"measurement": "The level of expressed mRNA in the presence of chemical substance/The level of expressed mRNA in the absence of chemical substance", "setting": "yeast gene YDR388W", "result": 0.8}, {"measurement": "The level of expressed mRNA in the presence of chemical substance/The level of expressed mRNA in the absence of chemical substance", "setting": "yeast gene YDR432W", "result": 0.5}, {"measurement": "The level of expressed mRNA in the presence of chemical substance/The level of expressed mRNA in the absence of chemical substance", "setting": "yeast gene YDR481C", "result": 1.0}, {"measurement": "The level of expressed mRNA in the presence of chemical substance/The level of expressed mRNA in the absence of chemical substance", "setting": "yeast gene YDR510W", "result": 1.5}, {"measurement": "The level of expressed mRNA in the presence of chemical substance/The level of expressed mRNA in the absence of chemical substance", "setting": "yeast gene YEL042W", "result": 0.7}, {"measurement": "The level of expressed mRNA in the presence of chemical substance/The level of expressed mRNA in the absence of chemical substance", "setting": "yeast gene YEL066W", "result": 1.4}, {"measurement": "The level of expressed mRNA in the presence of chemical substance/The level of expressed mRNA in the absence of chemical substance", "setting": "yeast gene YER039C", "result": 0.7}, {"measurement": "The level of expressed mRNA in the presence of chemical substance/The level of expressed mRNA in the absence of chemical substance", "setting": "yeast gene YER107C", "result": 0.8}, {"measurement": "The level of expressed mRNA in the presence of chemical substance/The level of expressed mRNA in the absence of chemical substance", "setting": "yeast gene YER130C", "result": 1.2}, {"measurement": "The level of expressed mRNA in the presence of chemical substance/The level of expressed mRNA in the absence of chemical substance", "setting": "yeast gene YFL022C", "result": 0.8}, {"measurement": "The level of expressed mRNA in the presence of chemical substance/The level of expressed mRNA in the absence of chemical substance", "setting": "yeast gene YFL028C", "result": 1.5}, {"measurement": "The level of expressed mRNA in the presence of chemical substance/The level of expressed mRNA in the absence of chemical substance", "setting": "yeast gene YFL043C", "result": 1.0}, {"measurement": "The level of expressed mRNA in the presence of chemical substance/The level of expressed mRNA in the absence of chemical substance", "setting": "yeast gene YGL158W", "result": 1.3}, {"measurement": "The level of expressed mRNA in the presence of chemical substance/The level of expressed mRNA in the absence of chemical substance", "setting": "yeast gene YGL229C", "result": 0.7}, {"measurement": "The level of expressed mRNA in the presence of chemical substance/The level of expressed mRNA in the absence of chemical substance", "setting": "yeast gene YGR136W", "result": 1.3}, {"measurement": "The level of expressed mRNA in the presence of chemical substance/The level of expressed mRNA in the absence of chemical substance", "setting": "yeast gene YGR189C", "result": 1.0}, {"measurement": "The level of expressed mRNA in the presence of chemical substance/The level of expressed mRNA in the absence of chemical substance", "setting": "yeast gene YGR213C", "result": 2.0}, {"measurement": "The level of expressed mRNA in the presence of chemical substance/The level of expressed mRNA in the absence of chemical substance", "setting": "yeast gene YGR257C", "result": 1.0}, {"measurement": "The level of expressed mRNA in the presence of chemical substance/The level of expressed mRNA in the absence of chemical substance", "setting": "yeast gene YHR004C", "result": 0.9}, {"measurement": "The level of expressed mRNA in the presence of chemical substance/The level of expressed mRNA in the absence of chemical substance", "setting": "yeast gene YHR071W", "result": 1.7}, {"measurement": "The level of expressed mRNA in the presence of chemical substance/The level of expressed mRNA in the absence of chemical substance", "setting": "yeast gene YHR139C", "result": 1.3}, {"measurement": "The level of expressed mRNA in the presence of chemical substance/The level of expressed mRNA in the absence of chemical substance", "setting": "yeast gene YHR142W", "result": 1.3}, {"measurement": "The level of expressed mRNA in the presence of chemical substance/The level of expressed mRNA in the absence of chemical substance", "setting": "yeast gene YIL123W", "result": 0.6}, {"measurement": "The level of expressed mRNA in the presence of chemical substance/The level of expressed mRNA in the absence of chemical substance", "setting": "yeast gene YIL140W", "result": 0.7}, {"measurement": "The level of expressed mRNA in the presence of chemical substance/The level of expressed mRNA in the absence of chemical substance", "setting": "yeast gene YJL073W", "result": 1.0}, {"measurement": "The level of expressed mRNA in the presence of chemical substance/The level of expressed mRNA in the absence of chemical substance", "setting": "yeast gene YJL089W", "result": 1.1}, {"measurement": "The level of expressed mRNA in the presence of chemical substance/The level of expressed mRNA in the absence of chemical substance", "setting": "yeast gene YJL116C", "result": 1.8}, {"measurement": "The level of expressed mRNA in the presence of chemical substance/The level of expressed mRNA in the absence of chemical substance", "setting": "yeast gene YJR004C", "result": 0.4}, {"measurement": "The level of expressed mRNA in the presence of chemical substance/The level of expressed mRNA in the absence of chemical substance", "setting": "yeast gene YJR086W", "result": 1.1}]}
